Results on seven compounds are retold here after patent US20230017045A1, “PYRIDINE AND PYRIMIDINE CARBOXYLATE HERBICIDES AND METHODS OF USE THEREOF” (Dow AgroSciences LLC, priority 2017, published 2023).

The subject of this test is test plant species. The test is described as follows: Post-emergent herbicidal activity test (greenhouse, foliar spray, visual growth reduction). In kind it is in vivo. Conditions: post-emergence, 336 h, 140 g ai/ha, 14 days after application. The protocol: Post-emergent Test: Seeds or nutlets of the desired test plant species were planted in Sun Gro Metro-Mix® 360 planting mixture, which typically has a pH of 6.0 to 6.8 and an organic matter content of about 30 percent, in plastic pots with a surface area of 64 square centimeters. In some aspects, to ensure good germination and healthy plants, a fungicide treatment and/or other chemical or physical treatment was applied. The plants were grown for 7-21 d in a greenhouse with an approximate 15 h photoperiod which was maintained at 23-29° C. during the day and 22-28° C. during the night. Nutrients and water were added on a regular basis and supplemental lighting was provided with overhead metal halide 1000-Watt lamps as necessary. Plants were used for testing when they reached the first or second true leaf stage. A weighed amount, determined by the highest rate to be tested, of each test compound was placed in a 25 mL glass vial and was dissolved in 4 mL of a 97:3 v/v mixture of acetone and DMSO to obtain concentrated stock solutions. […] The concentrated stock solutions obtained were diluted with 20 mL of an aqueous mixture containing acetone, water, isopropyl alcohol, DMSO, […] crop oil concentrate, and X-77 surfactant in a 48.5:39:10:1.5:1.0:0.02 v/v ratio to obtain spray solutions containing the application rate. Compound requirements are based upon a 12 mL application volume at a rate of 187 liters per hectare (L/ha). Formulated compounds were applied to the plant material with an overhead Mandel track sprayer equipped with […] nozzles calibrated to deliver 187 L/ha over an application area of 0.64 square meters at a spray height of 18 inches (43 cm) above the average plant canopy height. Control plants were sprayed in the same manner with the solvent blank. The treated plants and control plants were placed in a greenhouse as described above and watered by subirrigation to prevent wash-off of the test compounds. After 14 d, the condition of the test plants as compared with that of the nontreated and control plants was determined visually and scored on a scale of 0 to 100 percent where 0 corresponds to no injury and 100 corresponds to complete control. In the reporting of the results, Table A: Percent Growth Reduction Conversion Table was used.

Where [1] appears, read: ALOMY: blackgrass (Alopecurus myosuroides), read-out: Visual Growth Reduction (%) 14 Days After Application, ALOMY.
Setting [2] is: AMARE: redroot pigweed (Amaranthus retroflexus), read-out: Visual Growth Reduction (%) 14 Days After Application, AMARE.
Setting [3] is: AVEFA: wild oat (Avena fatua), read-out: Visual Growth Reduction (%) 14 Days After Application, AVEFA.
The mark [4] stands for this setting: CHEAL: lambsquarters (Chenopodium album), read-out: Visual Growth Reduction (%) 14 Days After Application, CHEAL.
[5] abbreviates: CIRAR: canada thistle (Cirsium arvense), read-out: Visual Growth Reduction (%) 14 Days After Application, CIRAR.
Setting [6] is: CYPES: yellow nutsedge (Cyperus esculentus), read-out: Visual Growth Reduction (%) 14 Days After Application, CYPES.
[7] abbreviates: DIGSA: crabgrass (Digitaria sanguinalis), read-out: Visual Growth Reduction (%) 14 Days After Application, DIGSA.
Where [8] appears, read: ECHCG: barnyardgrass (Echinochloa crus-galli), read-out: Visual Growth Reduction (%) 14 Days After Application, ECHCG.
Where [9] appears, read: IPOHE: ivy-leaf morning glory (Ipomoea hederacea), read-out: Visual Growth Reduction (%) 14 Days After Application, IPOHE.
The mark [10] stands for this setting: KCHSC: kochia (Bassia scoparia), read-out: Visual Growth Reduction (%) 14 Days After Application, KCHSC.
[11] abbreviates: ORYSA: rice (Oryza sativa), read-out: Visual Growth Reduction (%) 14 Days After Application, ORYSA.
The mark [12] stands for this setting: SETFA: giant foxtail (Setaria faberi), read-out: Visual Growth Reduction (%) 14 Days After Application, SETFA.
The mark [13] stands for this setting: SORVU: grain sorghum (Sorghum vulgare), read-out: Visual Growth Reduction (%) 14 Days After Application, SORVU.
Setting [14] is: STEME: common chickweed (Stellaria media), read-out: Visual Growth Reduction (%) 14 Days After Application, STEME.
[15] abbreviates: TRZAS: wheat, spring (Triticum aestivum), read-out: Visual Growth Reduction (%) 14 Days After Application, TRZAS.

Read-outs that look alike come from different tables or passages of the source.

For the compound `COC(=O)c1nc(-c2ccc(C(F)(F)F)cc2C)ccc1Cl` [F29, Methyl 3-chloro-6-(2-methyl-4-(trifluoromethyl)phenyl)picolinate], the pest or weed control at 140 g/ha under setting [1] is 0 to 29%; the pest or weed control at 140 g/ha under setting [2] lay within 60 to 74%; the pest or weed control at 140 g/ha under setting [3] is 0 to 29%; the pest or weed control at 140 g/ha under setting [4] lay in the range of 60 to 74%; the pest or weed control at 140 g/ha under setting [5] fell in the range of 0 to 29%; the pest or weed control at 140 g/ha under setting [6] fell in the range of 0 to 29%. For the same compound, the pest or weed control at 140 g/ha under setting [7] is 45 to 59%; the pest or weed control at 140 g/ha under setting [8] lay in the range of 0 to 29%; the pest or weed control at 140 g/ha under setting [9] was in the range of 95 to 100%; the pest or weed control at 140 g/ha under setting [10] is 0 to 29%; the pest or weed control at 140 g/ha under setting [11] is 0 to 29%; the pest or weed control at 140 g/ha under setting [12] lay in the range of 0 to 29%. Further, the pest or weed control at 140 g/ha is, setting by setting: under setting [13], 60 to 74%; under setting [14], 0 to 29%; under setting [15], 0 to 29%.

Take `COC(=O)c1nc(-c2ccc(C(F)(F)F)cc2Br)ccc1Cl` [F30, Methyl 6-(2-bromo-4-trifluoromethyl)phenyl-3-chloropicolinate]: the pest or weed control at 140 g/ha reads like this: under setting [1], 60 to 74%; under setting [2], 95 to 100%; under setting [3], 45 to 59%; under setting [4], 95 to 100%; under setting [5], 85 to 94%; under setting [6], 0 to 29%. Further, the pest or weed control at 140 g/ha fell in the range of 85 to 94% under setting [7]; 45 to 59% under setting [8]; 95 to 100% under setting [9]; 75 to 84% under setting [10]; 0 to 29% under setting [11]; 45 to 59% under setting [12]. Further, the pest or weed control at 140 g/ha runs as follows: under setting [13], 85 to 94%; under setting [14], 0 to 29%; under setting [15], 60 to 74%.

Turning to `C#Cc1ccc(-c2ccc(C(F)(F)F)cc2Cl)nc1C(=O)OC` [F31, Methyl 6-(2-chloro-4-(trifluoromethyl)phenyl)-3-ethynylpicolinate], the pest or weed control at 140 g/ha by setting is: under setting [1], 0 to 29%; under setting [2], 45 to 59%; under setting [3], 0 to 29%; under setting [4], 0 to 29%; under setting [5], 0 to 29%; under setting [6], 0 to 29%. Moreover, the pest or weed control at 140 g/ha lay in the range of 0 to 29% under setting [7]; 0 to 29% under setting [8]; 60 to 74% under setting [9]; 0 to 29% under setting [10]; 0 to 29% under setting [11]; 0 to 29% under setting [12]. Moreover, the pest or weed control at 140 g/ha runs as follows: under setting [13], 45 to 59%; under setting [14], 0 to 29%; under setting [15], 0 to 29%.

Take `COC(=O)c1nc(-c2ccc(C(F)(F)F)cc2Cl)ccc1Br` [F32, Methyl 3-bromo-6-(2-chloro-4-(trifluoromethyl)yl)picolinate]: the pest or weed control at 140 g/ha is, setting by setting: under setting [1], 0 to 29%; under setting [2], 60 to 74%; under setting [3], 0 to 29%; under setting [4], 60 to 74%; under setting [5], 75 to 84%; under setting [6], 0 to 29%. Besides, the pest or weed control at 140 g/ha under setting [7] was 60 to 74%; the pest or weed control at 140 g/ha under setting [8] was 0 to 29%; the pest or weed control at 140 g/ha under setting [9] was 95 to 100%; the pest or weed control at 140 g/ha under setting [10] is 45 to 59%; the pest or weed control at 140 g/ha under setting [11] was in the range of 0 to 29%; the pest or weed control at 140 g/ha under setting [12] fell in the range of 30 to 44%. Also, the pest or weed control at 140 g/ha under setting [13] lay in the range of 85 to 94%, the pest or weed control at 140 g/ha under setting [14] was in the range of 0 to 29% and the pest or weed control at 140 g/ha under setting [15] was in the range of 0 to 29%.

`COC(=O)c1nc(-c2ccc(C(F)(F)F)cc2Cl)c(O)cc1Cl` [F34, methyl 3-chloro-6-(2-chloro-4-(trifluoromethyl)phenyl)-5-hydroxypicolinate]: the pest or weed control at 140 g/ha is, setting by setting: under setting [1], 0 to 29%; under setting [2], 0 to 29%; under setting [3], 0 to 29%; under setting [4], 45 to 59%; under setting [5], 0 to 29%; under setting [6], 0 to 29%. Moreover, the pest or weed control at 140 g/ha under setting [7] is 0 to 29%; the pest or weed control at 140 g/ha under setting [8] is 0 to 29%; the pest or weed control at 140 g/ha under setting [9] lay within 0 to 29%; the pest or weed control at 140 g/ha under setting [10] lay within 0 to 29%; the pest or weed control at 140 g/ha under setting [11] was in the range of 0 to 29%; the pest or weed control at 140 g/ha under setting [12] lay within 0 to 29%. The pest or weed control at 140 g/ha is 0 to 29% under setting [13], 0 to 29% under setting [14] and 0 to 29% under setting [15].

For the compound `COC(=O)c1nc(-c2ccc(OC)cc2Cl)ccc1Cl` [F35, Methyl 3-chloro-6-(2-chloro-4-methoxyphenyl) picolinate], the pest or weed control at 140 g/ha reads like this: under setting [1], 0 to 29%; under setting [2], 30 to 44%; under setting [3], 0 to 29%; under setting [4], 0 to 29%; under setting [5], 0 to 29%; under setting [6], 0 to 29%. For the same compound, the pest or weed control at 140 g/ha was in the range of 0 to 29% under setting [7]; 0 to 29% under setting [8]; 0 to 29% under setting [9]; 0 to 29% under setting [10]; 0 to 29% under setting [11]; 0 to 29% under setting [12]. The pest or weed control at 140 g/ha fell in the range of 0 to 29% under setting [13], 0 to 29% under setting [14] and 0 to 29% under setting [15].

For the compound `COC(=O)c1nc(-c2ccc(OC(C)(C)C)cc2Cl)ccc1Cl` [F36, Methyl 6-(4-(tert-butoxy)-2-chlorophenyl)-3-chloropicolinate], the pest or weed control at 140 g/ha under setting [1] fell in the range of 0 to 29%; the pest or weed control at 140 g/ha under setting [2] was in the range of 0 to 29%; the pest or weed control at 140 g/ha under setting [3] lay in the range of 0 to 29%; the pest or weed control at 140 g/ha under setting [4] was 0 to 29%; the pest or weed control at 140 g/ha under setting [5] is 0 to 29%; the pest or weed control at 140 g/ha under setting [6] lay in the range of 0 to 29%. Further, the pest or weed control at 140 g/ha is 0 to 29% under setting [7]; 0 to 29% under setting [8]; 0 to 29% under setting [9]; 0 to 29% under setting [10]; 0 to 29% under setting [11]; 0 to 29% under setting [12]. The pest or weed control at 140 g/ha runs as follows: under setting [13], 0 to 29%; under setting [14], 0 to 29%; under setting [15], 0 to 29%.
